Structures can show the parent of a compound that is named as a salt. Where two headings read alike, the source gives them in different places.
Experiments:
GH3-TRE-Luc cell line [1] = conditions: for TR_LUC_GH3_Antagonist_viability hitc: rat, 24 h
in vitro [2] = conditions: rat, gh3-tre-luc cells, AC50 (uM) modified / 1000
[3] = test system: thyroid hormone receptor (endogenous TRα and TRβ); assay: GH3-TRE-Antag primary qHTS, luciferase reporter, antagonist mode with 1 nM T3 (TOX21_TR_LUC_GH3_Antagonist, aeid 804); type: cell-based, rat
[4] = test system: thyroid hormone receptor (endogenous TRα and TRβ); assay: GH3-TRE-Ag primary qHTS, luciferase reporter, agonist mode (TOX21_TR_LUC_GH3_Agonist, aeid 803); type: cell-based, rat; conditions: for GH3-TRE-Ag AC50 hitc: hit call from tcpl; for AC50: read-out: GH3-TRE-Ag AC50
[5] = test system: thyroid hormone receptor (TR); assay: Classification of TR actives across characterization assays (TR-Ag / RXR-Ag; TR model binary); parameters: key to Categorization Code: FP, false positive; conditions: TR agonist characterization
Excerpt: Active rate comparison between receptors. […]; [Kleinstreuer et al. 2017]). We first removed chemicals classified as pharmaceuticals because these sets of chemicals are biased toward drugs targeting estrogen receptors and androgen receptors. […]. For TR, we cross-referenced these same chemicals for testing against TR and used candidate chemicals in Tables 2 and 3 to define active rates.
Complete results from both GH3-TRE qHTS agonist, antagonist, and viability mode for the 8,305 compounds are provided in Excel Table S2. […]. […]. Together with some potential false negatives, these chemicals, totaling 84 in all, were screened for activity in a series of assays for confirmation in the GH3-TRE-Ag assay; specificity screening in the TRβ-UAS-bla HEK 293T and RXRα-UAS-bla HEK 293T mammalian one-hybrid assays; viability assays for the HEK293T parental cell line; and orthogonal screening in two TR:coactivator recruitment assays, TRa-coa and TRb-coa. […].

[6] = test system: thyroid hormone receptor (endogenous TRα and TRβ); assay: GH3-TRE-Ag-Followup confirmation (TOX21_TR_LUC_GH3_Agonist_Followup, aeid 2226); type: cell-based, rat; conditions: for GH3-TRE-Ag-Followup hitc: hit call from tcpl; for AC50: read-out: GH3-TRE-Ag-Followup AC50
[7] = molecular target: T1, TRα ligand-binding domain (Homo sapiens, UniProt P10827); assay: TRa-coa LanthaScreen TR-FRET coactivator (SRC-2 peptide) recruitment, agonist (TOX21_TRA_COA_Agonist_Followup_ratio, aeid 2230); type: biochemical; conditions: for AC50 / TRa-coa hitc: agonist; for AC50: read-out: TRa-coa AC50; for TRa-coa hitc: hit call from tcpl; for Emax: read-out: EMax (% of Control) tra-coa-agonist-followup-1
T1 construct: the receptor LBDs expressed as glutathione S-transferase (GST) fusion proteins; purchased
T1 sequence (P10827 163-410 isoform P10827-2 limits assumed, other chains not shown): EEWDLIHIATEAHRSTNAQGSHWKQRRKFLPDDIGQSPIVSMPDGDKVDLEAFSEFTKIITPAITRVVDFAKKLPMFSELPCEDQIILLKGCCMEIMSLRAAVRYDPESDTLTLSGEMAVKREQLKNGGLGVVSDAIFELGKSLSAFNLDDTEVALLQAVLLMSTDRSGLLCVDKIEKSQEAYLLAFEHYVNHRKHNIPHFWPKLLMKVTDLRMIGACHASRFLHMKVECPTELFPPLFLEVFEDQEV

human RXRα = molecular target: T2, human RXRα (Homo sapiens, UniProt P19793); assay: RXRa-bla-Ag mammalian one-hybrid beta-lactamase assay (TOX21_TR_RXR_BLA_Agonist_Followup_ratio, aeid 2253); type: cell-based; conditions: for tr-followup-rxr-bla-agonist-1 hitc: hit call from tcpl; for Emax: read-out: EMax (% of Control) tr-followup-rxr-bla-agonist-1; for AC50: read-out: tr-followup-rxr-bla-agonist-1 AC50
T2 construct: host or cells: GeneBLAzer UAS-bla HEK 293T
T2 sequence (P19793 227-458 limits assumed): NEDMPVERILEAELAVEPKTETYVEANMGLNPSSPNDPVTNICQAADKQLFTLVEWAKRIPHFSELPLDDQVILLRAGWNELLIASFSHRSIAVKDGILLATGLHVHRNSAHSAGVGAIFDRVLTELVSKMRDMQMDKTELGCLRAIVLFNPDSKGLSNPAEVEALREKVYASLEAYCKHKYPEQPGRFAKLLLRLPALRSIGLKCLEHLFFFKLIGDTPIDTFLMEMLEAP

[8] = molecular target: T3, human TRβ ligand-binding domain (Homo sapiens, UniProt P10828); assay: TRb-coa LanthaScreen TR-FRET coactivator (SRC-2 peptide) recruitment, agonist (TOX21_TRB_COA_Agonist_Followup_ratio, aeid 2244); type: biochemical; parameters: host or cells: GeneBLAzer UAS-bla HEK 293T; conditions: for AC50 / TRb-coa hitc: agonist; for AC50: read-out: TRb-coa AC50; for TRb-coa hitc: hit call from tcpl; for Emax: read-out: EMax (% of Control) trb-coa-agonist-followup-1
T3 sequence (P10828 217-461 limits assumed): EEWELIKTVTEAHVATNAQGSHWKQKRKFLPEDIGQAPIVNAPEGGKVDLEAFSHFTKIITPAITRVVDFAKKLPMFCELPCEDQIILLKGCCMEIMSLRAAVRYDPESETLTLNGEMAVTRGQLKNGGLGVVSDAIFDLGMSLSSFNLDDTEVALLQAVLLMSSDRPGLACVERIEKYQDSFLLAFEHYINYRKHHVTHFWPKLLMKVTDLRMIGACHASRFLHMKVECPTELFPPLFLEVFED

[9] = molecular target: T3, human TRβ ligand-binding domain; assay: TRb-bla agonist mammalian one-hybrid beta-lactamase assay (TOX21_TRB_BLA_Agonist_Followup_ratio, aeid 2236); type: cell-based; parameters: host or cells: GeneBLAzer UAS-bla HEK 293T; conditions: for AC50 / TRb-bla hitc: agonist; for AC50: read-out: TRb-bla AC50; for TRb-bla hitc: hit call from tcpl; for Emax: read-out: EMax (% of Control) trb-bla-agonist-followup-1
[10] = test system: Tox21 cell viability assays (different cell types); assay: Global cytotoxicity: eighteen Tox21 cell viability assays; type: cell-based
GH3-TRE-Luc cell line [11] = assay: GH3-TRE-Via cell viability, CellTiter-Fluor (TOX21_TR_LUC_GH3_Antagonist_viability, aeid 805); conditions: Rattus norvegicus, read-out: TR_LUC_GH3_Antagonist_viability AC50 (uM)
in vitro [12] = conditions: rat
[13] = antagonist candidates, inactive samples arbitrarily set to AC50=1,000 μM
[14] = antagonist mode, 1 nM T3, read-out: GH3-TRE-Antag AC50

**Q.** Which AC50 (GH3-TRE-Luc cell line [1]) does the source give for `CC[C@]12CCCN3CCc4c(n(c5ccccc45)C(=O)C1)[C@@H]32` [(-)-Eburnamonine] here?
**A.** 7.18 µM

**Q.** What about the “resp_max GH3-TRE-Via” value (GH3-TRE-Luc cell line [1]) of the same molecule?
**A.** 66.2

**Q.** What about the CC50 at 24 h (in vitro [2]) of the same molecule?
**A.** 7.18 µM

**Q.** And the “resp_max GH3-TRE-Antag” value ([3]; Table S8)?
**A.** 88.8

**Q.** What about the AC50 ([3]; Table S8, read-out: Average AC50 (uM) GH3-TRE-Antag) of the same molecule?
**A.** 6.85 µM

**Q.** For `O=c1[nH]cnc2c1ncn2[C@H]1CC[C@@H](CO)O1` [2',3'-Dideoxyinosine], which TR_LUC_GH3_Antagonist_viability hitc (GH3-TRE-Luc cell line [1]) is on record?
**A.** 0

**Q.** And the “EMax (% of Control) gh3-tre-agonist” value [4]?
**A.** 1.6 % of Control

**Q.** And the “GH3-TRE-Ag AC50 hitc” value [4]?
**A.** 0

**Q.** And the AC50 [4]?
**A.** > 92 µM

**Q.** What about the “Categorization Code” value [5] of the same molecule?
**A.** FP

**Q.** What about the CC50 at 24 h (in vitro [2]) of the same molecule?
**A.** > 100 µM

**Q.** And the “EMax (% of Control) gh3-tre-agonist-followup-1_agonist” value [6]?
**A.** 78.5 % of Control

**Q.** What about the GH3-TRE-Ag-Followup hitc [6] of the same molecule?
**A.** 1

**Q.** And the AC50 [6]?
**A.** 3.46 µM

**Q.** And the AC50 [7]?
**A.** > 92 µM

**Q.** And the TRa-coa hitc [7]?
**A.** 0

**Q.** What about the Emax [7] of the same molecule?
**A.** -0.5%

**Q.** And the tr-followup-rxr-bla-agonist-1 hitc (human RXRα)?
**A.** 0

**Q.** And the Emax (human RXRα)?
**A.** -0.6%

**Q.** What about the AC50 (human RXRα) of the same molecule?
**A.** > 92 µM

**Q.** What about the AC50 [8] of the same molecule?
**A.** > 92 µM

**Q.** What about the TRb-coa hitc [8] of the same molecule?
**A.** 0

**Q.** What about the Emax [8] of the same molecule?
**A.** -0.448%

**Q.** And the AC50 [9]?
**A.** 3.46 µM

**Q.** What about the TRb-bla hitc [9] of the same molecule?
**A.** 1

**Q.** And the Emax [9]?
**A.** 74.4%

**Q.** What about the “GLOBAL CYTOTOXICITY cytotox.median” value [10] of the same molecule?
**A.** >92

**Q.** What about the “GLOBAL CYTOTOXICITY cytotox.number_Active” value [10] of the same molecule?
**A.** 0

**Q.** And the AC50 (GH3-TRE-Luc cell line [11])?
**A.** > 92 µM

**Q.** Which “cytotoxicity in GH3 viability assay” value (GH3-TRE-Luc cell line [1]) does the source give for `CN(C)S(=O)(=O)N(SC(F)(Cl)Cl)c1ccccc1` [Dichlofluanid] here?
**A.** loss of viability at virtually identical concentrations

**Q.** What about the CC50 at 24 h (in vitro [2]) of the same molecule?
**A.** 1.43 µM

**Q.** What about the “activity in GH3-TRE antagonist mode assay” value (shortened to “activity”) [3] of the same molecule?
**A.** active

**Q.** With `CC(C)(c1ccc(O)cc1)c1ccc(O)cc1` [BPA, bisphenol A] as the molecule, how does the CC50 at 24 h (in vitro [2]) read?
**A.** > 90 µM

**Q.** And the “activity” value [3]?
**A.** active in suppressing the TR transactivation assay

**Q.** For `NCC(=O)CCC(=O)O` [Aminolevulinic acid hydrochloride], which TR_LUC_GH3_Antagonist_viability hitc (GH3-TRE-Luc cell line [1]) is on record?
**A.** 0

**Q.** And the “EMax (% of Control) gh3-tre-agonist” value [4]?
**A.** 29.9 % of Control

**Q.** What about the “GH3-TRE-Ag AC50 hitc” value [4] of the same molecule?
**A.** 1

**Q.** And the “Categorization Code” value [5]?
**A.** FP

**Q.** And the CC50 at 24 h (in vitro [2])?
**A.** > 50 µM

**Q.** And the “EMax (% of Control) gh3-tre-agonist-followup-1_agonist” value [6]?
**A.** 43.5 % of Control

**Q.** What about the GH3-TRE-Ag-Followup hitc [6] of the same molecule?
**A.** 1

**Q.** And the AC50 [6]?
**A.** 22.5 µM

**Q.** And the AC50 [7]?
**A.** > 92 µM

**Q.** And the TRa-coa hitc [7]?
**A.** 0

**Q.** And the Emax [7]?
**A.** 1.1%

**Q.** What about the tr-followup-rxr-bla-agonist-1 hitc (human RXRα) of the same molecule?
**A.** 0

**Q.** What about the Emax (human RXRα) of the same molecule?
**A.** 13%

**Q.** What about the AC50 (human RXRα) of the same molecule?
**A.** > 92 µM

**Q.** What about the AC50 [8] of the same molecule?
**A.** > 92 µM

**Q.** And the TRb-coa hitc [8]?
**A.** 0

**Q.** What about the Emax [8] of the same molecule?
**A.** 3.6%

**Q.** What about the AC50 [9] of the same molecule?
**A.** > 92 µM

**Q.** And the TRb-bla hitc [9]?
**A.** 0

**Q.** And the Emax [9]?
**A.** 12.7%

**Q.** And the “GLOBAL CYTOTOXICITY cytotox.median” value [10]?
**A.** >92

**Q.** And the “GLOBAL CYTOTOXICITY cytotox.number_Active” value [10]?
**A.** 0

**Q.** What about the AC50 (GH3-TRE-Luc cell line [11]) of the same molecule?
**A.** > 92 µM

**Q.** With `CC[C@@]1(O)C(=O)OCc2c1cc1n(c2=O)Cc2cc3c(CN(C)C)c(O)ccc3nc2-1` [Topotecan hydrochloride, reference compound] as the molecule, how does the “cytotoxicity in GH3 viability assay” value (GH3-TRE-Luc cell line [1]) read?
**A.** not considered active

**Q.** What about the “activity” value [3] of the same molecule?
**A.** complete inhibition of luciferase activity

**Q.** For `COC(=O)C1=C(C)NC(C)=C(C(=O)OCCN2CCN(C(c3ccccc3)c3ccccc3)CC2)C1c1cccc([N+](=O)[O-])c1` (centres unmarked) [Manidipine dihydrochloride], which AC50 (GH3-TRE-Luc cell line [1]) is on record?
**A.** 9.06 µM

**Q.** What about the AC50 [4, 13] of the same molecule?
**A.** > 92 µM

**Q.** And the CC50 at 24 h (in vitro [2])?
**A.** 9.06 µM

**Q.** And the AC50 [3, 14]?
**A.** 7.4 µM

**Q.** What about the AC50 [10] of the same molecule?
**A.** 18.6 µM

**Q.** What about the “Active in global cytotoxicity assays (%)” value [10] of the same molecule?
**A.** 28.8%

**Q.** For `N=C1C=CC(=C(c2ccc(N)cc2)c2ccc(N)cc2)C=C1` [C.I. Basic Red 9 monohydrochloride], which AC50 (GH3-TRE-Luc cell line [1]) is on record?
**A.** 8.8 µM

**Q.** What about the AC50 [4, 13] of the same molecule?
**A.** > 92 µM

**Q.** And the CC50 at 24 h (in vitro [2])?
**A.** 8.8 µM

**Q.** And the AC50 [3, 14]?
**A.** 5.15 µM

**Q.** And the AC50 [10]?
**A.** 24.2 µM

**Q.** What about the “Active in global cytotoxicity assays (%)” value [10] of the same molecule?
**A.** 66.7%

**Q.** What does the source list for `CNCC[C@H](Oc1cccc2ccccc12)c1cccs1` [Duloxetine hydrochloride, reference compound]?
**A.** AC50 at 24 h (in vitro [12]): 5.69 µM; AC50 [4]: > 92 µM; AC50 ([3]; read-out: GH3-TRE-Antag AC50, antagonist mode, 1 nM T3): 6.22 µM

Reference: PMC6792352, “Limited Chemical Structural Diversity Found to Modulate Thyroid Hormone Receptor in the Tox21 Chemical Library” (Environmental Health Perspectives, 2019)
